Laboratory results reported in US8883010B2, “Polymer composition with phytochemical and dialysis membrane formed from the polymer composition” (The University of Akron, priority 2008, dated 2014).
Entries after “also recorded” stand apart in the source; their conditions may differ.

Experiments:
[1] = tested on: reactive oxygen species (ROS) in neutrophils; assay: Modified DHR (dihydrorhodamine) assay of oxygen radical generation in PMA-stimulated whole blood; assay type: cell-based, human; conditions: for suppression of ROS levels (in words): pure antioxidant in DMSO, no membrane/polymer, 25-500 μg/ml
Protocol: In order to determine the effect of membranes and/or genistein on oxygen radical generation, the standard dihydrorhodamine (DHR) assay was modified as follows. The assay consisted of one positive control tube, several sample tubes and one negative control tube. The positive control tube contained 100 μl blood, 25 μl DHR, and 25 μl PMA; the total contents were made up to a total volume of 1 ml with PBS. The effect of oxygen radical generation is tested as follows, using the sample tube containing 100 μl blood, 25 μl DHR, 25 μl PMA and the appropriate sample (for example, unmodified membranes or pure genistein or genistein modified membranes). […] For the assay, two small circular samples (2×0.4 cm^2) were punched out from the cast films and placed inside the test tubes. After adding the membrane, the entire contents were incubated at 37° C. for 3 h (to simulate hemodialysis conditions) while being subjected to continuous shaking. After 3 h of incubation, the membrane samples were removed from the blood and agitated with 1 ml of PBS in order to dislodge the cells that were attached to the membrane. In the case of pure genistein (i.e., no membrane), the samples were prepared by dissolving genistein in DMSO over a wide range of concentration (25-500 μg/ml). The negative control tube contained 100 μl blood, 25 μl DHR, and the sample.
In order to normalize the data obtained from different set of experiments, the following formula was employed to express ROS level in percentage,
where the positive control represent 100% ROS and the negative control represent 0% ROS. The x, y, and z parameters represent the mean fluorescence signal obtained from the positive control, the negative control, and the samples, respectively.

[2] = tested on: peripheral blood mononuclear cells (PBMC); assay: Cell viability (cytotoxicity) assay with 7-AAD dye and flow cytometry; assay type: cell-based; conditions: pure genistein, 25-500 μg/ml
Protocol: Cell viability assays were conducted to determine the effect of unmodified membranes, pure genistein and genistein modified membranes on whole blood. A nucleic acid dye, 7-Amino-actinomycin D (7-AAD), (BD-Via-Probe™ from BD Bioscience, CA) was used as a viability probe, which is based on uptake of 7-AAD. 7-AAD is a nucleic acid dye, which is designed in such a way that it cannot enter live cells. Fresh blood mixed with the dye was used as a negative control, whereas blood incubated with the membrane and/or genistein served as the experimental samples.
To perform the assays, 100 μl of fresh blood was pipetted into separate polypropylene tubes and mixed with 2 ml of ammonium chloride lysis buffer solution (containing 8.26 g ammonium chloride, 1 g potassium bicarbonate, and 0.037 g ethylenediamine-tetraacetic acid dissolved in 1 liter deionized water). The tubes were allowed to stand at room temperature for 10 min during which most of the red blood cells were lysed. The tubes were centrifuged at room temperature for 5 min at 1,800 rpm. […] The cells were resuspended with 500 μl of PBS and the cell suspension was analyzed using a flow cytometer (EPICS® XL-MCL™, Beckman Coulter, Calif., USA) equipped with System II™ software. […] The fluorescence signal from the dead cells was measured on the FL3 red channel (650 nm) with the flow cytometer.

Row | Molecule | suppression of ROS levels (in words) [1] | cytotoxicity to PBMC [2] | reduction of the oxygen radicals ([1]; pure genistein in DMSO, no membrane)
1 | Vitamin E | Suppression is greater than for Vitamin E | – | –
2 | O=c1c(-c2ccc(O)cc2)coc2cc(O)cc(O)c12 [genistein, 5,7-dihydroxy-3-(4-hydroxyphenyl)chromen-4-one] | dose-dependent reduction of ROS level; also recorded: suppress ROS levels significantly; also recorded: Suppression is greater than for Vitamin E | non-cytotoxic | about 50%
